Results reported in patent US11040963B2 (priority 2017, dated 2021).
pIC50: −log10 of the molar value.

What was measured:
[1] = biological target: HA H1 A/California/07/09 (Influenza A virus (A/California/07/2009(H1N1)), UniProt C3W5X2); experiment: biochemical; details: Competition binding (AlphaLISA), pIC50 H1 A/California/07/09
[2] = biological target: HA H1 A/New Caledonia/20/99 (Influenza A virus (A/New Caledonia/20/1999(H1N1)), UniProt Q6WG00); experiment: biochemical; details: Competition binding (AlphaLISA), pIC50 H1 A/New Caledonia/20/99
[3] = biological target: HA H5 A/Vietnam/1203/04 (Influenza A virus (A/Vietnam/1203/2004(H5N1)), UniProt Q5EP31); experiment: biochemical; details: Competition binding (AlphaLISA), pIC50 H5 A/Vietnam/1203/04
[4] = test system: H1N1 A/California/07/09; experiment: microbe, parasite or virus in culture; assay type: cell-based, influenza A virus; details: Influenza A virus, H1N1, MDCK, 96 h, read-out: Virus neutralization assay (VNA), pEC50 H1N1 A/California/07/09 (converted)
[5] = test system: H1N1 A/New Caledonia/20/99; experiment: microbe, parasite or virus in culture; assay type: cell-based, influenza A virus; details: Influenza A virus, H1N1, MDCK, 96 h, read-out: Virus neutralization assay (VNA), pEC50 H1N1 A/New Caledonia/20/99 (converted)
[6] = test system: H5N1 A/Vietnam/1203/04; experiment: microbe, parasite or virus in culture; assay type: cell-based, influenza A virus; details: Influenza A virus, H5N1, MDCK, 96 h, read-out: Virus neutralization assay (VNA), pEC50 H5N1 A/Vietnam/1203/04, MDCK cells, 96 h, CPE by ATPlite (converted); average of repeats
[7] = in vitro; details: dog, Cytotoxicity (pCC50) MDCK

COC(=O)C(c1ccccc1)N1CCN(C(=O)c2cccc(-c3nc4cc(Cl)ccc4o3)c2)CC1 (stereo not shown) [Example 59]
pIC50 [1]: 7.20 | pIC50 [2]: 7.20 | pIC50 [3]: 5.70 | EC50 [4]: 0.398 µM | EC50 [5]: 0.501 µM | EC50 [6]: 20 µM | CC50 [7]: > 50.1 µM

COC(=O)C(c1ccccc1)N1CCN(C(=O)c2cccc(-c3nc4ccc(OC)cc4o3)c2)CC1 (stereo not shown) [Example 60]
pIC50 [1]: 7.20 | pIC50 [2]: 7.40 | pIC50 [3]: 5.80 | EC50 [4]: 0.631 µM | EC50 [5]: 0.501 µM | EC50 [6]: 12.6 µM | CC50 [7]: 25.1 µM

COc1ccc2nc(-c3cccc(C(=O)N4CCN([C@H](c5ccccc5)c5nnn(C)n5)CC4)c3)sc2c1 [Example 61]
pIC50 [1]: 7.10 | pIC50 [2]: 7.20 | pIC50 [3]: 6.30 | EC50 [4]: 0.631 µM | EC50 [5]: 0.501 µM | EC50 [6]: 2 µM | CC50 [7]: 39.8 µM

COC(=O)[C@H](c1ccccc1)N1CCN(C(=O)c2cccc(-c3nc4cc(C(F)(F)F)ccc4o3)c2)[C@@H](C(N)=O)C1 [Example 62]
pIC50 [1]: 7.00 | pIC50 [2]: 7.00 | pIC50 [3]: 5.50 | EC50 [4]: 0.631 µM | EC50 [5]: 0.631 µM | EC50 [6]: 20 µM | CC50 [7]: 39.8 µM

Cc1nnc([C@@H](c2ccccc2)N2CCN(C(=O)c3cc(F)cc(-c4nc5cc(C(F)(F)F)ccc5o4)c3)CC2)o1 [Example 63]
pIC50 [1]: 6.80 | pIC50 [2]: 6.80 | pIC50 [3]: 4.80 | EC50 [4]: 0.631 µM | EC50 [5]: 0.501 µM | EC50 [6]: > 50.1 µM | CC50 [7]: > 50.1 µM

CNC(=O)c1cnc(-c2cccc(C(=O)N3CCN(C(C(=O)OC)c4ccccc4)CC3)c2)s1 (stereo not shown) [Example 64]
pIC50 [1]: 7.10 | pIC50 [2]: 7.10 | pIC50 [3]: 5.70 | EC50 [4]: 1 µM | EC50 [5]: 0.501 µM | EC50 [6]: 25.1 µM | CC50 [7]: > 50.1 µM

COC(=O)C(c1ccccn1)C1CCN(C(=O)c2cccc(-c3nc4ccc(OC)cc4s3)c2)CC1 (stereo not shown) [Example 66]
pIC50 [1]: 7.00 | pIC50 [2]: 7.20 | pIC50 [3]: 6.10 | EC50 [4]: 1 µM | EC50 [5]: 0.501 µM | EC50 [6]: 12.6 µM | CC50 [7]: 20 µM

COC(=O)[C@@H](c1ccccc1)N1CCN(C(=O)c2cccc(-c3nc4cc(C(F)(F)F)ccc4o3)c2)[C@H](CC(N)=O)C1 [Example 67]
pIC50 [1]: 7.30 | pIC50 [2]: 7.30 | pIC50 [3]: 5.50 | EC50 [4]: 0.794 µM | EC50 [5]: 0.631 µM | EC50 [6]: 31.6 µM | CC50 [7]: 39.8 µM

COC(=O)C(c1cccnc1)N1CCN(C(=O)c2cccc(-c3nc4ccc(OC)cc4s3)c2)CC1 (stereo not shown) [Example 68]
pIC50 [1]: 6.70 | pIC50 [2]: 7.00 | pIC50 [3]: 5.90 | EC50 [4]: 2 µM | EC50 [5]: 0.501 µM | EC50 [6]: 20 µM | CC50 [7]: 10 µM

[2H]C([2H])([2H])c1nnc(C(c2ccccc2)N2CCN(C(=O)c3cccc(-c4nc5cc(C(F)(F)F)ccc5o4)c3)CC2)o1 (stereo not shown) [Example 70]
pIC50 [1]: 6.80 | pIC50 [2]: 6.80 | pIC50 [3]: 5.40 | EC50 [4]: 0.501 µM | EC50 [5]: 0.631 µM | EC50 [6]: > 50.1 µM | CC50 [7]: > 50.1 µM

COc1ccc2nc(-c3cccc(C(=O)N4CCN(C(c5ccccc5)c5nnc(C)o5)CC4)c3)sc2c1 (stereo not shown) [Example 71]
pIC50 [1]: 7.00 | pIC50 [2]: 7.00 | pIC50 [3]: 6.00 | EC50 [4]: 0.794 µM | EC50 [5]: 0.631 µM | EC50 [6]: 7.94 µM | CC50 [7]: > 50.1 µM

COc1ccc2nc(-c3cccc(C(=O)N4CCN(C(c5ccccc5)c5nnn(C)n5)CC4)c3)sc2c1 (stereo not shown) [Example 72]
pIC50 [1]: 6.70 | pIC50 [2]: 6.90 | pIC50 [3]: 5.80 | EC50 [4]: 0.794 µM | EC50 [5]: 0.631 µM | EC50 [6]: 39.8 µM | CC50 [7]: 50.1 µM

Cc1nnc(C(c2ccccc2)N2CCN(C(=O)c3cccc(-c4nc5cc(NS(C)(=O)=O)ccc5o4)c3)CC2)o1 (stereo not shown) [Example 73]
pIC50 [1]: 7.80 | pIC50 [2]: 7.60 | pIC50 [3]: 5.90 | EC50 [4]: 0.794 µM | EC50 [5]: 0.794 µM | EC50 [6]: > 50.1 µM | CC50 [7]: > 50.1 µM
